Results on 19 molecules are retold here after the Kinase Knowledgebase extract (Sharma et al. 2016).

The target in the experiment is PIK3CD (Human) (UniProt O00329). Nature of the experiment: Assessment of PIK3CD Kinase Activity.
Chain of PIK3CD (Human) (O00329 whole entry, looked up): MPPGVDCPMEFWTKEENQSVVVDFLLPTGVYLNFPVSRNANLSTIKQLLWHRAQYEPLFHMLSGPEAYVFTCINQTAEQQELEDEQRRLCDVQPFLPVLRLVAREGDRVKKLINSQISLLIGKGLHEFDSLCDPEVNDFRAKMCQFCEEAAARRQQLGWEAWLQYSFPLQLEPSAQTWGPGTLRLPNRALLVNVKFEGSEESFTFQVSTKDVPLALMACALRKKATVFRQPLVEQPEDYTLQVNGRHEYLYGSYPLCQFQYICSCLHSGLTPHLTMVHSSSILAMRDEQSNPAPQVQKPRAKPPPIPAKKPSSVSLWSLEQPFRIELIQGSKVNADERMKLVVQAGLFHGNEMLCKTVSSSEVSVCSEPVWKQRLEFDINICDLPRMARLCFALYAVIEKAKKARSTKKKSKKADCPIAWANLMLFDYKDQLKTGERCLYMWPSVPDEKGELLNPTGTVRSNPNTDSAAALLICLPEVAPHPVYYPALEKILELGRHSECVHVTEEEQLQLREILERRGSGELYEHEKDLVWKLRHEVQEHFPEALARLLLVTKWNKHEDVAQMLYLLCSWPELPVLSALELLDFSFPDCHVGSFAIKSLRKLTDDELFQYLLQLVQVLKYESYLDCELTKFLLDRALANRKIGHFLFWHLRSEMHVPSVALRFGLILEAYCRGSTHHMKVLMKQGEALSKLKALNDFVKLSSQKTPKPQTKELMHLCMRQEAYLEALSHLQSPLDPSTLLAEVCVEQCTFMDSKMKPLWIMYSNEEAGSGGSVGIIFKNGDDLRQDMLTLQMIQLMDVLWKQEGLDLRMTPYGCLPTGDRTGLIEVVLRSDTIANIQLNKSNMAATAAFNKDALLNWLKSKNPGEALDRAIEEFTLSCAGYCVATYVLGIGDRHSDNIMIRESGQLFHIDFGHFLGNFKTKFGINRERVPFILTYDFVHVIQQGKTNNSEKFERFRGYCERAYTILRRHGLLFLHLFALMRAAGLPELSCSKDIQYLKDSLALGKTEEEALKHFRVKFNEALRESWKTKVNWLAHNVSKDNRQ

A word on the IC50: it is the midpoint of a concentration-inhibition curve. The low end stands for higher potency, the high end for lower potency. Consider `CCCn1cc(-c2nc3c(N4CCC(n5c(=O)[nH]c6ccccc65)CC4)ncnc3n2CC)cn1`, for which the concentration for half-maximal inhibition (IC50) is under 50 nM.

The molecule `Cn1c(-c2cn[nH]c2)nc2c(N3CCC(n4c(=O)[nH]c5ccccc54)CC3)ncnc21` had an IC50 of under 50 nM.

For `Cn1c(C(=O)N2CC[C@@H](F)C2)nc2c(N3CCC(n4c(=O)[nH]c5ccccc54)CC3)ncnc21`, the 50% inhibitory concentration (IC50) was 50 to 250 nM.

`Cn1c(C(=O)NCC2CC2)nc2c(N3CCC(C4C(=O)Nc5ccccc54)CC3)ncnc21` (centres undefined) displayed an IC50 of 250 to 500 nM.

Consider `COc1cccc2c1[nH]c(=O)n2C1CCN(c2ncnc3c2nc(C(=O)NCC2CC2)n3C)CC1`, for which the IC50 was 50 to 250 nM.

In the case of `Cc1c(-c2nc3c(N4CCC(n5c(=O)[nH]c6c(F)cccc65)CC4)ncnc3n2C)cnn1C`, the concentration for half-maximal inhibition (IC50) is under 50 nM.

Consider `CCn1c(-c2cn[nH]c2)nc2c(N3CCC(n4c(=O)[nH]c5ccccc54)CC3)ncnc21`, for which the IC50 is under 50 nM.

For the molecule `CN(C)C1CN(C(=O)c2nc3c(N4CCC5(CC4)C(=O)NCN5c4ccccc4)ncnc3n2C)C1`, the IC50 lay within 500 to 1500 nM.

For the molecule `CC1CN(c2ncnc3c2nc(C(=O)NCC2CC2)n3C)CCC1n1c(=O)[nH]c2ccccc21` (centres undefined), the concentration for half-maximal inhibition (IC50) was in the range of 50 to 250 nM.

In turn, `COc1ccc(S(=O)(=O)N2CCN(c3ncnc4c3nc(-c3cnn(C)c3)n4C)CC2)cc1` showed an IC50 of 500 to 1500 nM.

The molecule `CN1CCN(c2cccc3c2[nH]c(=O)n3C2CCN(c3ncnc4c3nc(C(=O)NCC3CC3)n4C)CC2)CC1` registered a half-inhibitory concentration (IC50) of 50 to 250 nM.

Regarding `CN(C)c1ccc(-c2nc3c(N4CCC(n5c(=O)[nH]c6ccccc65)CC4)ncnc3n2C)cn1`, the half-maximal inhibitory concentration (IC50) was under 50 nM.

In turn, `Cc1cccc(-n2ncc3c2CCN(c2ncnc4c2nc(C(=O)NCC2CC2)n4C)C3)c1` registered a half-maximal inhibitory concentration (IC50) of 500 to 1500 nM.

As for `Cn1c(C(=O)NCC2CC2)nc2c(N3CCC(n4c(=O)[nH]c5ccccc54)CC3)ncnc21`, the concentration for half-maximal inhibition (IC50) was in the range of 50 to 250 nM.

`Cn1c(C(=O)NCC2CC2)nc2c(N3CCc4c(cnn4-c4ccccc4)C3)ncnc21` gave an IC50 of 250 to 500 nM.

`Cc1cccc(C)c1-n1ncc2c1CCN(c1ncnc3c1nc(C(=O)NCC1CC1)n3C)C2` gave an IC50 of 500 to 1500 nM.

Regarding `Cc1ccccc1-n1ncc2c1CCN(c1ncnc3c1nc(C(=O)NCC1CC1)n3C)C2`, the IC50 lay in the range of 500 to 1500 nM.

With `Cn1c(C(=O)NCC2CC2)nc2c(N3CCC(n4c(N)nc5ccccc54)CC3)ncnc21`, the IC50 lay within 50 to 250 nM.

The molecule `Cc1ccc(-n2ncc3c2CCN(c2ncnc4c2nc(C(=O)NCC2CC2)n4C)C3)c(C)c1` returned a half-inhibitory concentration (IC50) of 500 to 1500 nM.
